# Experimental data as given in US10463644B2, “Uses of sesquiterpene lactone compounds and their derivatives in drugs preparation” (ACCENDATECH, priority 2013, dated 2019).
# Read-outs that look alike come from different tables or passages of the source.
# Tests used:
# [1] = tested on: TNF-α secreted by synoviocyte; test: Content of TNF-α in culture supernatant of synoviocyte of RA model rats given test compound; type: in vivo; settings: rat RA model, dose 30 mg/kg.2d; normal control 0.38 ± 0.027, NaCl 0.74 ± 0.098
# Outline: (§1)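 Values reflect mediator secretion by synoviocytes taken from arthritic rats dosed at 30 mg/kg.2d. Normal and NaCl groups served as references.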
# cancer stem cells = test: Survival rate of cancer stem cells after test compound is added (flow cytometry, Annexin V-FITC/PI, clinical specimen); type: cell-based, patient; settings: Homo sapiens, 18 h
# Excerpt: (§2) Take fresh or cryopreserved clinical specimen (acute myelogenous leukemia (AML, marker is CD34^+/CD38^+), chronic myelogenous leukemia (CML, Ph+/CD34+/CXCR4+), chronic lymphocytic leukemia (CLL,CD133+/CD19−/CD38−), skin cancer (CD34+), breast cancer (CD44+/CD24−/ESA+), ovarian cancer (CD44+/CD117+), brain tumor (CD133+) prostate cancer (CD44+/CD24−), head-neck squamous cell carcinoma (CD44+), laryngeal cancer (CD133+), pancreatic cancer (ESA+/CD44+/CD24+), retinoblastoma (ABCG2/ALDH1), Children hepatoblastoma (CD34+/THY1+/c-kit+), liver cancer (CD133+), malignant melanoma (CD133+), colorectal cancer (EpCAM^high/CD44+), colon adenocarcinoma (CD44^high), glioma (ABCG-2/BCRP1), gastrointestinal tumor (ABCG-2/BCRP1), nasopharynx cancer (ABCG2), brain glioma (Dlk-1/Pref-1), gastric cancer (CD45+), lung adenocarcinoma (Sca-1/CD45-/Pecam-/CD34+), lung cancer (CD133+CD34+CD44+)) of patient. Take the acute myelogenous leukemia as the example, conduct density gradient centrifugation with Ficoll and take out the middle mononuclear cells, re-suspend it with serum-free IMDM after centrifuged. Adjust the concentration of cells into 1×10^6/mL and lay 24-well plate with 1 mL in each well, and then treat 18 hours with the compound to select with corresponding concentration. Collect the cells and centrifuge them at 1500 rps for 8 minutes, re-suspend the precipitation with […], mark the antibodies related to leukemia stem cell, avoid light to incubate 30 minutes at room temperature and then centrifuge it at 1500 rps, then wash away the unbound antibody CD34^+CD38^+. Re-suspend it with 100 μl 1× Binding Buffer and add respectively 5 μl Annexin V-FITC and PI, then avoid light to incubate 15 minutes before add 200 μl 1× Binding Buffer, then use flow cytometry to examine the marked apoptosis within one hour.
# [2] = tested on: PGE2 secreted by synoviocyte; test: Content of PGE2 in culture supernatant of synoviocyte of RA model rats given test compound; type: in vivo; settings: rat RA model, dose 30 mg/kg.2d; normal control 8.34 ± 1.29, NaCl 32.44 ± 10.32
# Outline: as §1
# normal cells = test: Survival rate of normal cells after test compound is added (flow cytometry, Annexin V-FITC/PI); type: cell-based; settings: 18 h
# Excerpt: as §2
# [3] = tested on: IL-1β secreted by synoviocyte; test: Content of IL-1β in culture supernatant of synoviocyte of RA model rats given test compound; type: in vivo; settings: rat RA model, dose 30 mg/kg.2d; normal control 0.16 ± 0.034, NaCl 0.49 ± 0.136
# Outline: as §1
# [4] = Head and neck squamous cell carcinomas
# [5] = read-out: Survival rate (%) All cells (Stem cells and ordinary cells)
# [6] = read-out: Survival rate (%) Stem cells
smiles,measurement,setting,value
C=C1C(=O)O[C@H]2[C@H]1CCC(C)=C1CC[C@@](C)(OC(=O)CCCc3cn(CCCCCCO)nn3)[C@@H]12 [Compound 21],Content of TNF-α in culture supernatant of synoviocyte (x ± s),[1],0.56 ± 0.034 ng/mL
same,viability at 10 µM,cancer stem cells; AML,66%
same,viability at 20 µM,cancer stem cells; AML,47%
same,viability at 10 µM,cancer stem cells; Brain glioma,68%
same,viability at 20 µM,cancer stem cells; Brain glioma,53%
same,viability at 10 µM,cancer stem cells; Brain tumor,65%
same,viability at 20 µM,cancer stem cells; Brain tumor,54%
same,viability at 10 µM,cancer stem cells; Breast cancer,62%
same,viability at 20 µM,cancer stem cells; Breast cancer,55%
same,viability at 10 µM,cancer stem cells; CLL,51%
same,viability at 20 µM,cancer stem cells; CLL,48%
same,viability at 10 µM,cancer stem cells; CML,75%
same,viability at 20 µM,cancer stem cells; CML,56%
same,viability at 10 µM,cancer stem cells; Children hepatoblastoma,74%
same,viability at 20 µM,cancer stem cells; Children hepatoblastoma,57%
same,viability at 10 µM,cancer stem cells; Colon adenocarcinoma,58%
same,viability at 20 µM,cancer stem cells; Colon adenocarcinoma,44%
same,viability at 10 µM,cancer stem cells; Colorectal cancer,73%
same,viability at 20 µM,cancer stem cells; Colorectal cancer,58%
same,viability at 10 µM,cancer stem cells; Gastric cancer,56%
same,viability at 20 µM,cancer stem cells; Gastric cancer,45%
same,viability at 10 µM,cancer stem cells; Gastrointestinal tumor,64%
same,viability at 20 µM,cancer stem cells; Gastrointestinal tumor,46%
same,viability at 10 µM,cancer stem cells; Glioma,78%
same,viability at 20 µM,cancer stem cells; Glioma,67%
same,viability at 10 µM,cancer stem cells; [4],75%
same,viability at 20 µM,cancer stem cells; [4],66%
same,viability at 10 µM,cancer stem cells; Laryngeal cancer,66%
same,viability at 20 µM,cancer stem cells; Laryngeal cancer,52%
same,viability at 10 µM,cancer stem cells; Liver cancer,64%
same,viability at 20 µM,cancer stem cells; Liver cancer,55%
same,viability at 10 µM,cancer stem cells; Lung adenocarcinoma,58%
same,viability at 20 µM,cancer stem cells; Lung adenocarcinoma,49%
same,viability at 10 µM,cancer stem cells; Lung cancer,63%
same,viability at 20 µM,cancer stem cells; Lung cancer,54%
same,viability at 10 µM,cancer stem cells; Malignant melanoma,59%
same,viability at 20 µM,cancer stem cells; Malignant melanoma,45%
same,viability at 10 µM,cancer stem cells; Nasopharynx cancer,55%
same,viability at 20 µM,cancer stem cells; Nasopharynx cancer,42%
same,viability at 10 µM,cancer stem cells; Ovarian cancer,56%
same,viability at 20 µM,cancer stem cells; Ovarian cancer,49%
same,viability at 10 µM,cancer stem cells; Pancreatic cancer,57%
same,viability at 20 µM,cancer stem cells; Pancreatic cancer,50%
same,viability at 10 µM,cancer stem cells; Prostate cancer,68%
same,viability at 20 µM,cancer stem cells; Prostate cancer,57%
same,viability at 10 µM,cancer stem cells; Retinoblastoma,56%
same,viability at 20 µM,cancer stem cells; Retinoblastoma,47%
same,viability at 10 µM,cancer stem cells; Skin cancer,56%
same,viability at 20 µM,cancer stem cells; Skin cancer,47%
same,Content of PGE2 in culture supernatant of synoviocyte (x ± s),[2],19.59 ± 3.25 ng/mL
same,viability at 10 µM,normal cells; [5],95%
same,viability at 10 µM,normal cells; [6],94%
same,viability at 20 µM,normal cells; [5],94%
same,viability at 20 µM,normal cells; [6],92%
same,Content of IL-1β in culture supernatant of synoviocyte (x ± s),[3],0.36 ± 0.057 ng/mL
C=C1C(=O)O[C@@H]2[C@H]3C(C)=CC[C@@]34O[C@@]4(C)CC[C@@H]12 [Compound 50],Content of TNF-α in culture supernatant of synoviocyte (x ± s),[1],0.52 ± 0.064 ng/mL
same,viability at 10 µM,cancer stem cells; AML,45%
same,viability at 20 µM,cancer stem cells; AML,36%
same,viability at 10 µM,cancer stem cells; Brain glioma,63%
same,viability at 20 µM,cancer stem cells; Brain glioma,47%
same,viability at 10 µM,cancer stem cells; Brain tumor,62%
same,viability at 20 µM,cancer stem cells; Brain tumor,54%
same,viability at 10 µM,cancer stem cells; Breast cancer,64%
same,viability at 20 µM,cancer stem cells; Breast cancer,52%
same,viability at 10 µM,cancer stem cells; CLL,47%
same,viability at 20 µM,cancer stem cells; CLL,36%
same,viability at 10 µM,cancer stem cells; CML,57%
same,viability at 20 µM,cancer stem cells; CML,46%
same,viability at 10 µM,cancer stem cells; Children hepatoblastoma,42%
same,viability at 20 µM,cancer stem cells; Children hepatoblastoma,34%
same,viability at 10 µM,cancer stem cells; Colon adenocarcinoma,43%
same,viability at 20 µM,cancer stem cells; Colon adenocarcinoma,35%
same,viability at 10 µM,cancer stem cells; Colorectal cancer,64%
same,viability at 20 µM,cancer stem cells; Colorectal cancer,55%
same,viability at 10 µM,cancer stem cells; Gastric cancer,45%
same,viability at 20 µM,cancer stem cells; Gastric cancer,37%
same,viability at 10 µM,cancer stem cells; Gastrointestinal tumor,55%
same,viability at 20 µM,cancer stem cells; Gastrointestinal tumor,44%
same,viability at 10 µM,cancer stem cells; Glioma,62%
same,viability at 20 µM,cancer stem cells; Glioma,45%
same,viability at 10 µM,cancer stem cells; [4],56%
same,viability at 20 µM,cancer stem cells; [4],47%
same,viability at 10 µM,cancer stem cells; Laryngeal cancer,64%
same,viability at 20 µM,cancer stem cells; Laryngeal cancer,53%
same,viability at 10 µM,cancer stem cells; Liver cancer,53%
same,viability at 20 µM,cancer stem cells; Liver cancer,46%
same,viability at 10 µM,cancer stem cells; Lung adenocarcinoma,46%
same,viability at 20 µM,cancer stem cells; Lung adenocarcinoma,36%
same,viability at 10 µM,cancer stem cells; Lung cancer,43%
same,viability at 20 µM,cancer stem cells; Lung cancer,33%
same,viability at 10 µM,cancer stem cells; Malignant melanoma,64%
same,viability at 20 µM,cancer stem cells; Malignant melanoma,54%
same,viability at 10 µM,cancer stem cells; Nasopharynx cancer,44%
same,viability at 20 µM,cancer stem cells; Nasopharynx cancer,37%
same,viability at 10 µM,cancer stem cells; Ovarian cancer,62%
same,viability at 20 µM,cancer stem cells; Ovarian cancer,55%
same,viability at 10 µM,cancer stem cells; Pancreatic cancer,53%
same,viability at 20 µM,cancer stem cells; Pancreatic cancer,43%
same,viability at 10 µM,cancer stem cells; Prostate cancer,54%
same,viability at 20 µM,cancer stem cells; Prostate cancer,41%
same,viability at 10 µM,cancer stem cells; Retinoblastoma,54%
same,viability at 20 µM,cancer stem cells; Retinoblastoma,44%
same,viability at 10 µM,cancer stem cells; Skin cancer,57%
same,viability at 20 µM,cancer stem cells; Skin cancer,43%
same,Content of PGE2 in culture supernatant of synoviocyte (x ± s),[2],19.83 ± 1.78 ng/mL
same,viability at 10 µM,normal cells; [5],92%
same,viability at 10 µM,normal cells; [6],90%
same,viability at 20 µM,normal cells; [5],91%
same,viability at 20 µM,normal cells; [6],89%
same,Content of IL-1β in culture supernatant of synoviocyte (x ± s),[3],0.34 ± 0.061 ng/mL
C=C1C(=O)O[C@@H]2[C@@H]3[C@@H](CC[C@@]3(C)O)C(=C)CC[C@@H]12 [Compound 48],Content of TNF-α in culture supernatant of synoviocyte (x ± s),[1],0.62 ± 0.054 ng/mL
same,viability at 10 µM,cancer stem cells; AML,47%
same,viability at 20 µM,cancer stem cells; AML,38%
same,viability at 10 µM,cancer stem cells; Brain glioma,52%
same,viability at 20 µM,cancer stem cells; Brain glioma,43%
same,viability at 10 µM,cancer stem cells; Brain tumor,66%
same,viability at 20 µM,cancer stem cells; Brain tumor,53%
same,viability at 10 µM,cancer stem cells; Breast cancer,54%
same,viability at 20 µM,cancer stem cells; Breast cancer,47%
same,viability at 10 µM,cancer stem cells; CLL,46%
same,viability at 20 µM,cancer stem cells; CLL,38%
same,viability at 10 µM,cancer stem cells; CML,51%
same,viability at 20 µM,cancer stem cells; CML,46%
same,viability at 10 µM,cancer stem cells; Children hepatoblastoma,68%
same,viability at 20 µM,cancer stem cells; Children hepatoblastoma,56%
same,viability at 10 µM,cancer stem cells; Colon adenocarcinoma,58%
same,viability at 20 µM,cancer stem cells; Colon adenocarcinoma,49%
same,viability at 10 µM,cancer stem cells; Colorectal cancer,66%
same,viability at 20 µM,cancer stem cells; Colorectal cancer,55%
same,viability at 10 µM,cancer stem cells; Gastric cancer,51%
same,viability at 20 µM,cancer stem cells; Gastric cancer,39%
same,viability at 10 µM,cancer stem cells; Gastrointestinal tumor,57%
same,viability at 20 µM,cancer stem cells; Gastrointestinal tumor,52%
same,viability at 10 µM,cancer stem cells; Glioma,69%
same,viability at 20 µM,cancer stem cells; Glioma,60%
same,viability at 10 µM,cancer stem cells; [4],64%
same,viability at 20 µM,cancer stem cells; [4],58%
same,viability at 10 µM,cancer stem cells; Laryngeal cancer,63%
same,viability at 20 µM,cancer stem cells; Laryngeal cancer,55%
same,viability at 10 µM,cancer stem cells; Liver cancer,74%
same,viability at 20 µM,cancer stem cells; Liver cancer,61%
same,viability at 10 µM,cancer stem cells; Lung adenocarcinoma,67%
same,viability at 20 µM,cancer stem cells; Lung adenocarcinoma,55%
same,viability at 10 µM,cancer stem cells; Lung cancer,61%
same,viability at 20 µM,cancer stem cells; Lung cancer,54%
same,viability at 10 µM,cancer stem cells; Malignant melanoma,82%
same,viability at 20 µM,cancer stem cells; Malignant melanoma,76%
same,viability at 10 µM,cancer stem cells; Nasopharynx cancer,57%
same,viability at 20 µM,cancer stem cells; Nasopharynx cancer,48%
same,viability at 10 µM,cancer stem cells; Ovarian cancer,56%
same,viability at 20 µM,cancer stem cells; Ovarian cancer,45%
same,viability at 10 µM,cancer stem cells; Pancreatic cancer,55%
same,viability at 20 µM,cancer stem cells; Pancreatic cancer,49%
same,viability at 10 µM,cancer stem cells; Prostate cancer,62%
same,viability at 20 µM,cancer stem cells; Prostate cancer,51%
same,viability at 10 µM,cancer stem cells; Retinoblastoma,62%
same,viability at 20 µM,cancer stem cells; Retinoblastoma,54%
same,viability at 10 µM,cancer stem cells; Skin cancer,46%
same,viability at 20 µM,cancer stem cells; Skin cancer,39%
same,Content of PGE2 in culture supernatant of synoviocyte (x ± s),[2],26.65 ± 2.45 ng/mL
same,viability at 10 µM,normal cells; [5],92%
same,viability at 10 µM,normal cells; [6],91%
same,viability at 20 µM,normal cells; [5],91%
same,viability at 20 µM,normal cells; [6],89%
same,Content of IL-1β in culture supernatant of synoviocyte (x ± s),[3],0.38 ± 0.046 ng/mL
